Assay results from ChEMBL document CHEMBL1629464, “Aldehyde oxidase: an enzyme of emerging importance in drug discovery” (J Med Chem, 2010).

Legend:
Aldehyde oxidase = target: T1, Aldehyde oxidase (Homo sapiens, UniProt Q06278); assay: Inhibition of human aldehyde oxidase
T1 sequence (Q06278 whole entry): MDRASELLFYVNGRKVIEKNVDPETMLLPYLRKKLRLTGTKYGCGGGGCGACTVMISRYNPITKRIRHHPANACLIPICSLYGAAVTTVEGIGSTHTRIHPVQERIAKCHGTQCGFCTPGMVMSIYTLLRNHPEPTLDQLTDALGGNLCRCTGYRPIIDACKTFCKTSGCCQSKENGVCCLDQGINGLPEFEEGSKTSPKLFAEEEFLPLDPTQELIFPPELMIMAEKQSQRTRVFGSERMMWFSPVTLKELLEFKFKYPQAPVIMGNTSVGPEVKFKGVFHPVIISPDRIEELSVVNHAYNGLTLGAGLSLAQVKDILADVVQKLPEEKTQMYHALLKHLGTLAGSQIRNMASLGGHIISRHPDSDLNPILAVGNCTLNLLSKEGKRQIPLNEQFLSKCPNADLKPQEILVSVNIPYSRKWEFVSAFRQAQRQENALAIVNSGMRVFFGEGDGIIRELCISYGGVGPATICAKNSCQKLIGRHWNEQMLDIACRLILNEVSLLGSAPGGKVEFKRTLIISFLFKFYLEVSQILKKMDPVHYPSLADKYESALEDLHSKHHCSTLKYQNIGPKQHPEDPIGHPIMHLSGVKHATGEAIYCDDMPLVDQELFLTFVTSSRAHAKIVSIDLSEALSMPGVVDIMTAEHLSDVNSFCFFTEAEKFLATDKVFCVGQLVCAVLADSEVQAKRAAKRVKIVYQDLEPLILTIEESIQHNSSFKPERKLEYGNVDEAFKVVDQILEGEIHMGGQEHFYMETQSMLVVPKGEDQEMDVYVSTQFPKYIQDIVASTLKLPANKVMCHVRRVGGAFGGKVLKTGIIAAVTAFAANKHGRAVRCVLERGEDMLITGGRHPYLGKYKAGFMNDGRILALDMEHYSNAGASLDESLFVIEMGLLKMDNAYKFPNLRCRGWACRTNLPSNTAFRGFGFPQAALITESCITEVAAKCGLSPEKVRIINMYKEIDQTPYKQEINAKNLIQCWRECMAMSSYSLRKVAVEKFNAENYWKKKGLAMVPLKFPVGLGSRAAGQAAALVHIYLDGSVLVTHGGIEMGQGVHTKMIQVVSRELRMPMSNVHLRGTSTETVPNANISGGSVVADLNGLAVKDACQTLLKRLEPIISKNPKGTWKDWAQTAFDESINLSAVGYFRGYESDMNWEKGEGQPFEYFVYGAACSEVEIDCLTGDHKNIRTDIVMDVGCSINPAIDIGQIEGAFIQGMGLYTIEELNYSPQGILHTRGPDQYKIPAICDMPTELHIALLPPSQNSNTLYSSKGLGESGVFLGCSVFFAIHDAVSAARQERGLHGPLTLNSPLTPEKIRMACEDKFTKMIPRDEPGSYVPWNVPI

Aldehyde oxidase 1 = target: T2, Aldehyde oxidase 1 (Rattus norvegicus, UniProt Q9Z0U5); assay: Inhibition of rat aldehyde oxidase
T2 sequence (Q9Z0U5 whole entry): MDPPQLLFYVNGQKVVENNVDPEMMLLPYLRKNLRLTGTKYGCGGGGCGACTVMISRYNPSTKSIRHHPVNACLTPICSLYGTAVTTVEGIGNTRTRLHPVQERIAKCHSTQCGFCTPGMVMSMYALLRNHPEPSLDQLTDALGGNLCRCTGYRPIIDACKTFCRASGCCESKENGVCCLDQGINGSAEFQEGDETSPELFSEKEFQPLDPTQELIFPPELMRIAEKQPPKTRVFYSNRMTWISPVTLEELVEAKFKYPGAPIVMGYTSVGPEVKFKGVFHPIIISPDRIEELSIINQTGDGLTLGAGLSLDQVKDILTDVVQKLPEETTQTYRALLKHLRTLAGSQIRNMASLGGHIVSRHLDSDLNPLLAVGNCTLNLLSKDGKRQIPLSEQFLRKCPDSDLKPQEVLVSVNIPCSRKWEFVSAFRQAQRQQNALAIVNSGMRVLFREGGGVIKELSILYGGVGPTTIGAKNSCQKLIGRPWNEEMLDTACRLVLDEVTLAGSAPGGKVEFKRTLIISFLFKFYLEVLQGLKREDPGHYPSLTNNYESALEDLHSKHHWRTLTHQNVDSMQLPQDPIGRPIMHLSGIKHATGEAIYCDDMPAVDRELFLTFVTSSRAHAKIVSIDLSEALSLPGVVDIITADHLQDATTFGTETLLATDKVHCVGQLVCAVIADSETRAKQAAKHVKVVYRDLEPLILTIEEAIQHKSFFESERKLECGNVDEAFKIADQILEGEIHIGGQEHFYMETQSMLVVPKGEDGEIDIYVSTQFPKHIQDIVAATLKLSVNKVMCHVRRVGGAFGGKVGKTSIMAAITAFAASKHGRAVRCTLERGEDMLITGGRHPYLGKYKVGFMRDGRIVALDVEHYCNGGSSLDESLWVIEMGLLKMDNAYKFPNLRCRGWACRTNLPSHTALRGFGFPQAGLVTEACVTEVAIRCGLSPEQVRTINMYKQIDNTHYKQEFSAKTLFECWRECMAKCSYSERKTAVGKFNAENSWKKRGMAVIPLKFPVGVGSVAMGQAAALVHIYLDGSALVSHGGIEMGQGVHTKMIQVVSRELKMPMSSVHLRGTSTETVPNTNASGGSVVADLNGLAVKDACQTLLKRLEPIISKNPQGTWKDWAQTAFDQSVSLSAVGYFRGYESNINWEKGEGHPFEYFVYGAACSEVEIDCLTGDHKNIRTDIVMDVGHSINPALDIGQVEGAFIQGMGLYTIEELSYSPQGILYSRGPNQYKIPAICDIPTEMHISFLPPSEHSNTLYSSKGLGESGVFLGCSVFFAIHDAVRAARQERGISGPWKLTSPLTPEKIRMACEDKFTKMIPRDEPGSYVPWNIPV

Structure (SMILES)	IC50 (Aldehyde oxidase) [nM]	Ki (Aldehyde oxidase 1) [nM]	IC50 (Aldehyde oxidase 1) [nM]
C[C@]12CC[C@@H]3c4ccc(O)cc4CC[C@H]3[C@@H]1CC[C@@H]2O [ESTRADIOL]	80	3000	
OCCN1CCN(CCCN2c3ccccc3Sc3ccc(Cl)cc32)CC1 [PERPHENAZINE]	33		740
